pEC50: −log10 of the molar value.
Tests used:
[1] = molecular target: T1, COS-7/AMY3 (human calcitonin receptor (CTR) and RAMP3) (Homo sapiens, UniProt O60896+P30988); assay: Amylin Receptor cAMP Assay I; format: cell-based; conditions: values marked *: Amylin Receptor cAMP Assay I; COS-7/AMY3 cells, cAMP Hi-range kit, 30 min; read-out: Amylin Receptor cAMP Stimulation Activity: EC50
T1 construct: expressed in transfected cells; host or cells: COS-7
Text: Amylin Receptor cAMP Assay I
AMYRs are heterodimers of the class B calcitonin (CT) G-protein-coupled receptor (CTR) and receptor activity-modifying proteins (RAMPs). All three RAMPs can interact with the CTR and form AMY1, AMY2, AMY3 with RAMP1, RAMP2 and RAMP3, respectively. Like other class B1 GPCRs, the CT receptor family is canonically coupled to Gs-mediated cAMP production, and measurement of cAMP accumulation has been the primary assay used to determine peptide selectivity and potency.
To optimize functional activity directed toward Gαs coupling, COS-7 cells were stably transfected with human calcitonin receptor (CTR) and RAMP3, simultaneously. 100×concentration of compound working solutions were prepared (Agilent Technologies Bravo) with 4-fold serial dilution in 384-well Echo LDV plate (Labcyte, Cat #LP-0200). 100 nL/well 100×concentration of compound working solutions were moved to 384-well white low volume plate (Greiner, Cat #784075) using Labcyte ECHO550. […]
After incubation, the cAMP assay signal was generated using cAMP Hi-range Kit (Cisbio). […] The samples were then incubated at room temperature for 1 hour protected from light. the fluorescence was read at 665 and 615 nm with Reader PerkinElmer EnVision. % Activity=100%×(mean RLU of test sample−mean RLU of vehicle control)/(mean RLU of MAX control−mean RLU of vehicle control)) Amylin Receptor cAMP Assay II

[2] = molecular target: T2, human calcitonin receptor (CTR) (Homo sapiens, UniProt P30988); assay: Calcitonin Receptor (CTR) cAMP Assay; format: cell-based; conditions: COS7-human CTR Clone #2 stable cell line, cAMP dynamic 2 kit, 30 min; read-out: Calcitonin Receptor cAMP Stimulation Activity: EC50
T2 construct: expressed in transfected cells; host or cells: COS-7 (COS7-human CTR Clone #2)
T2 sequence (P30988 25-474): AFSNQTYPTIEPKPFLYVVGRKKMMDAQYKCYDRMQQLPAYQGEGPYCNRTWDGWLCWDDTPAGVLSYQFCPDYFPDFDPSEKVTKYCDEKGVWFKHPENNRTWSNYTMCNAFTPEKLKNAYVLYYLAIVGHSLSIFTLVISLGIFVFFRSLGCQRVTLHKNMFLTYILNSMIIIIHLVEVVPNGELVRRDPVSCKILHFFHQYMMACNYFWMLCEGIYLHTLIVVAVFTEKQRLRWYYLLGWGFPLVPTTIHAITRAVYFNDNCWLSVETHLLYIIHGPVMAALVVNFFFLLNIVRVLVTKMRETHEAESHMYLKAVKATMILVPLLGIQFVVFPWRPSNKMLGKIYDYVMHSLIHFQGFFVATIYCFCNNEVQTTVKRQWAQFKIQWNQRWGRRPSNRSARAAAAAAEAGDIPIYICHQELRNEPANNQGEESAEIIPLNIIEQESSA
How it was run: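 COS-7 cells stably expressing human CTR (2000 cells/well) were incubated 30 min at 37 °C with 4-fold serially diluted compound in HBSS/20 mM HEPES/0.5 mM IBMX/0.1% casein. cAMP was detected by HTRF (665/615 nm) after 1 h at RT. % activity was normalised to vehicle and positive controls.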

T1 sequence (O60896 24-148, one chain of several): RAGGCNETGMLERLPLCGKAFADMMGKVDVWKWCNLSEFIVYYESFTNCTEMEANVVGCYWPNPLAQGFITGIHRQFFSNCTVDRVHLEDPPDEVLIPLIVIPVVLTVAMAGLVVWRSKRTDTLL

pEC50 [1]: 6.92
pEC50 [2]: 8.62
Structure (SMILES): COc1cccc2c1CC[C@H]2NC(=O)c1ccc(-c2c3c(nc(CCc4ccc(F)cc4)c2-c2noc(=O)[nH]2)[C@@H]2CCCN2C3=O)s1 [Compound 108, 5-((S)-2-(4-fluorophenethyl)-5-oxo-3-(5-oxo-4,5-dihydro-1,2,4-oxadiazol-3-yl)-7,8,9,9a-tetrahydro-5H-pyrido[2,3-a]pyrrolizin-4-yl)-N—((R)-4-methoxy-2,3-dihydro-1H-inden-1-yl)thiophene-2-carboxamide]

From patent US12486269B2 (Aconcagua Bio, Inc., priority 2024, dated 2025)
